# How the values were obtained:
# Assay type in all cases: cell-based
# HCV GT 1b replicon = assay: HCV replicon assay, stable GT 1b replicon (Renilla luciferase); details: Hepatitis C virus, GT1B, 72 h
# Protocol: (§1) The activity of compounds was determined against HCV replicons representing genotypes (GT) 1a, 1b, 2a, and 3a. To generate stable Huh-7.5-based cell lines, HCV replicons were engineered to express the Renilla luciferase reporter (hRluc) fused to the neomycin phosphotransferase (Neo) gene. GT2a and GT3a HCV replicons were based on the JFH-1 subgenomic replicon (Kato et al. 2003 Gastroenterology, 125:1808-1817), in which the NS5A gene was replaced with that of strains J6 and S52 (GT2a and G3a, respectively). The activity of compounds against GT1a replicons encoding NS5A mutations (M28T, Q30R, L31M, Y93C, and Y93H) was also determined in a transient replication assay. The parental GT1a and GT2a replicons (pH/SG-Neo(L+I) and pSG-Neo-JFH1, respectively) were licensed from Apath LLC (Saint Louis, Mo.). The parental GT 1b replicon (pFKi389lucubineo_3_3′_ET) was licensed from ReBLikon GmbH (Germany). HCV replicons were constructed by standard molecular biology techniques described below. All replicon constructs were verified by restriction enzyme digestion and DNA sequencing.
# The hRluc-Neo cassette was PCR amplified from pF9 cytomegalovirus (CMV) hRluc-Neo Flexi(R) (Promega) using Accuprime Super Mix II (Invitrogen) and the following primers, which introduce restriction sites: […]
# The amplification product was subcloned into pCR2.1-TOPO (Invitrogen). The resulting plasmid was digested with AscI and NotI, and the excised hRluc-Neo fragment was ligated using the Roche Quick Ligation Kit (Roche) into pFKi389lucubineo_3_3′_ET digested with the same enzymes.
# Stable HCV replicon cell lines were grown in complete media (Dulbecco's modified Eagle medium [DMEM], 2 mM L-glutamine, 0.1 mM essential amino acids, 1 mM sodium pyruvate, 10% heat inactivated fetal bovine serum) with the addition 500 μg/ml […] (G418). Huh7-lunet cells were maintained in the same medium without the addition of G418. Cells were routinely passaged at a dilution of 1:4 two times a week. The assay medium for both luciferase reporter HCV replicon and cytotoxicity assays used phenol red-free DMEM and lacked G418. For each stable replicon assay, a sixteen point half-log dilution series of compound was stamped (0.5 ul compound per well) into three replica 384-well plates, to which cells were added directly (4000 cells/well). For the transient replication assay, Huh7-lunet cells in ice-cold phosphate buffered saline (PBS) were electroporated (BioRad electroporator; 950 uF, 270V) with 10 ug purified in vitro transcribed HCV replicon RNA, followed by resuspension in complete media and plating (8000 cells/well) into compound stamped 384-well plates. Luciferase activity of compound-treated cells was measured relative to DMSO-treated cells after 72 h incubation using RENILLA-GLO™ Luciferase Assay (Promega). Cytotoxicity (CC50) in the GT1b replicon cell line was analyzed using CELL TITER-GLO™ (Promega).
# The compounds of the present invention can be effective against the HCV 1b genotype. It should also be understood that the compounds of the present invention can inhibit multiple genotypes of HCV. In one embodiment compound of the present invention are active against the 1a, 1b, 2a, 2b, 3a, 4a, and 5a genotypes. In another embodiment compound of the present invention are active against the HCV resistant mutants. […] EC50s are in pM against HCV GT 1a and GT 1b; and nM against GT 2a-J6, GT 3a and GT1a resistant variants (M28T, Q30R, L31V, Y93C and Y93H).
# [1] = system: GT1a replicon encoding NS5A mutation M28T; assay: Transient replication assay, GT1a replicon with NS5A mutation M28T; details: Hepatitis C virus, read-out: EC50 1a M28T
# [2] = system: GT1a replicon encoding NS5A mutation L31V; assay: Transient replication assay, GT1a replicon with NS5A mutation L31V; details: Hepatitis C virus, read-out: EC50 1a L31V
# HCV GT 3a replicon = assay: HCV replicon assay, GT2a chimeric replicon expressing NS5A from GT3a strain S52; details: Hepatitis C virus, 72 h, read-out: EC50 3a
# Protocol: as §1
# The plasmid pSG-hRlucNeo-JFH1 was generated from pSG-Neo-JFH1 (Kato et al. 2003, Gastroentrology 125:1808-1817). A fragment containing the JFH-1 5′ NTR—hRluc-Neo gene and two unique restriction sites (AgeI and PmeI) was synthesized (Integrated DNA Technologies, Coralville, Iowa). The resulting synthetic plasmid was digested with AgeI and PmeI and the excised fragment (5′NTR-hRluc-Neo) was ligated into pSG-Neo-JFH1 digested with the same enzymes to generate pSG-hRlucNeo-JFH1. To allow expression of heterologous NS5A sequences, an NS5A shuttle vector was generated from pSG-Neo-JFH1, in which the entire coding sequence of NS5A plus the first eight codons of NS5B were replaced with an AfeI restriction site. This was done by Infusion cloning (Clontech, Mountain View, Calif.) from two PCR products that were generated using pSG-Neo-JFH1 as a template and the following primer pairs:
# Underlined sequences denote regions of overlap necessary for Infusion cloning. Purified PCR products were cloned directly into an NsiI/SnaBI digested pSG-Neo-JFH1 following the manufacturer's instructions to generate pSG-Neo-JFH1-5Ashuttle. The 2023 base pair AgeI/PmeI fragment from pSG-hRlucNeo-JFH1 was then ligated into pSG-Neo-JFH1-5Ashuttle to generate pSG-hRlucNeo-JFH1-5Ashuttle. To generate the 2a-2a-(J6) and 2a-3a-(S52) NS5A chimeric replicons, the full length NS5A sequences from GT2a strain J6 (accession AF177036) and GT3a strain S52 (accession GU814263), with the addition of the first eight codons of JFH-1 NS5B (5′-TCCATGTCATACTCCTGGACCGGG-3′), were synthesized by GeneArt (Life Technologies, Carlsbad Calif.). J6 and S52 NS5A sequences were then PCR amplified from the synthetic clones using the appropriate forward primer:
# Underlined sequences denote regions of overlap with pSG-hRlucNeo-JFH1-5Ashuttle necessary for Infusion cloning. Purified PCR products were directly cloned into AfeI-digested shuttle vector by Infusion cloning following the manufacturer's instructions.
# Stable HCV replicon cell lines were grown in complete media (Dulbecco's modified Eagle medium [DMEM], 2 mM L-glutamine, 0.1 mM essential amino acids, 1 mM sodium pyruvate, 10% heat inactivated fetal bovine serum) with the addition 500 μg/ml […] (G418). Huh7-lunet cells were maintained in the same medium without the addition of G418. Cells were routinely passaged at a dilution of 1:4 two times a week. The assay medium for both luciferase reporter HCV replicon and cytotoxicity assays used phenol red-free DMEM and lacked G418. For each stable replicon assay, a sixteen point half-log dilution series of compound was stamped (0.5 ul compound per well) into three replica 384-well plates, to which cells were added directly (4000 cells/well). […]
# [3] = system: GT1a replicon encoding NS5A mutation Y93C; assay: Transient replication assay, GT1a replicon with NS5A mutation Y93C; details: Hepatitis C virus, read-out: EC50 1a Y93C
Compound,EC50 (HCV GT 1b replicon),EC50 [1],EC50 [2],EC50 (HCV GT 3a replicon),EC50 [3]
COC(=O)N[C@H](C(=O)N1C[C@]2(CCCOC2)C[C@H]1c1ncc(-c2ccc(-c3ccc4c(ccc5nc([C@@H]6C[C@H]7C[C@H]7N6C(=O)[C@@H](NC(=O)OC)C(C)C)[nH]c54)c3)cc2)[nH]1)C(C)C [Compound 18],11 pM,200 pM,300 pM,1000 pM,200 pM
COC(=O)N[C@H](C(=O)N1C[C@]2(CCCOC2)C[C@H]1c1ncc(-c2ccc(-c3ccc4c(ccc5nc([C@@H]6C[C@@H]7C[C@@H]7N6C(=O)[C@@H](NC(=O)OC)C(C)C)[nH]c54)c3)cc2)[nH]1)C(C)C [Compound 20],11 pM,900 pM,7000 pM,1000 pM,1000 pM
COC(=O)N[C@H](C(=O)N1C[C@]2(CCCOC2)C[C@H]1c1nc2ccc3cc(-c4ccc5c(ccc6nc([C@@H]7C[C@@H]8C[C@@H]8N7C(=O)[C@@H](NC(=O)OC)C(C)C)[nH]c65)c4)ccc3c2[nH]1)C(C)C [Compound 21],30 pM,200 pM,1000 pM,90 pM,90 pM
COC(=O)N[C@H](C(=O)N1C[C@]2(CCCOC2)C[C@H]1c1nc2ccc3cc(-c4ccc(-c5cnc([C@@H]6C[C@@H]7C[C@@H]7N6C(=O)[C@@H](NC(=O)OC)C(C)C)[nH]5)cc4)ccc3c2[nH]1)C(C)C [Compound 22],8 pM,100 pM,900 pM,600 pM,300 pM
COC(=O)N[C@H](C(=O)N1C[C@]2(CCCOC2)C[C@H]1c1nc2ccc3cc(-c4ccc5c(ccc6nc([C@@H]7C[C@@H]8CCCC[C@@H]8N7C(=O)[C@@H](NC(=O)OC)C(C)C)[nH]c65)c4)ccc3c2[nH]1)C(C)C [Compound 23],7 pM,20 pM,70 pM,60 pM,20 pM
COC(=O)N[C@H](C(=O)N1C[C@]2(CCCOC2)C[C@H]1c1nc2ccc3cc(-c4ccc(-c5cnc([C@@H]6C[C@@H]7CCCC[C@@H]7N6C(=O)[C@@H](NC(=O)OC)C(C)C)[nH]5)cc4)ccc3c2[nH]1)C(C)C [Compound 24],6 pM,20 pM,70 pM,100 pM,90 pM
COC(=O)N[C@H](C(=O)N1CCC[C@H]1c1nc2c([nH]1)-c1ccc(-c3ccc4c(ccc5nc([C@@H]6C[C@@]7(CCCOC7)CN6C(=O)[C@@H](NC(=O)OC)C(C)C)[nH]c54)c3)cc1OC2)C(C)C [Compound 25],68 pM,500 pM,600 pM,600 pM,90 pM
COC(=O)N[C@H](C(=O)N1C[C@]2(CCOC2)C[C@H]1c1ncc(-c2ccc(-c3ccc4c(ccc5nc([C@@H]6CCCN6C(=O)[C@@H](NC(=O)OC)C(C)C)[nH]c54)c3)cc2)[nH]1)C(C)C [Compound 26],22 pM,3000 pM,11000 pM,2000 pM,800 pM
COC(=O)N[C@H](C(=O)N1C[C@@]2(CCCOC2)C[C@H]1c1ncc(-c2ccc(-c3ccc4c(ccc5nc([C@@H]6CCCN6C(=O)[C@@H](NC(=O)OC)C(C)C)[nH]c54)c3)cc2)[nH]1)C(C)C [Compound 27],22 pM,30 pM,100 pM,297000 pM,20 pM
COC(=O)N[C@H](C(=O)N1C[C@]2(CCCOC2)C[C@H]1c1ncc(-c2ccc(-c3ccc4c(ccc5nc([C@@H]6CC7(CC7)CN6C(=O)[C@@H](NC(=O)OC)C(C)C)[nH]c54)c3)cc2)[nH]1)C(C)C [Compound 28],11 pM,90 pM,300 pM,500 pM,100 pM
COC(=O)N[C@H](C(=O)N1C[C@]2(CCCOC2)C[C@H]1c1ncc(-c2ccc(-c3ccc4c(ccc5nc([C@@H]6C[C@@H]7CCCC[C@@H]7N6C(=O)[C@@H](NC(=O)OC)C(C)C)[nH]c54)c3)cc2)[nH]1)C(C)C [Compound 29],4 pM,20 pM,100 pM,300 pM,100 pM
COC(=O)N[C@H](C(=O)N1C[C@]2(CCCOC2)C[C@H]1c1ncc(-c2ccc(-c3ccc4c(c3)OCc3nc([C@@H]5CCCN5C(=O)[C@@H](NC(=O)OC)C(C)C)[nH]c3-4)cc2)[nH]1)C(C)C [Compound 30],45 pM,600 pM,1000 pM,2000 pM,500 pM
COC(=O)N[C@H](C(=O)N1C[C@]2(CCCOC2)C[C@H]1c1nc2ccc3cc(-c4ccc5c(ccc6nc([C@@H]7C[C@@]8(CCCOC8)CN7C(=O)[C@@H](NC(=O)OC)C(C)C)[nH]c65)c4)ccc3c2[nH]1)C(C)C [Compound 31],58 pM,7 pM,30 pM,100 pM,7 pM
COC(=O)N[C@H](C(=O)N1C[C@]2(CCCOC2)C[C@H]1c1ncc(-c2ccc(-c3ccc(-c4cnc([C@@H]5C[C@@H]6CCCC[C@@H]6N5C(=O)[C@@H](NC(=O)OC)C(C)C)[nH]4)cc3)cc2)[nH]1)C(C)C [Compound 32],6 pM,50 pM,400 pM,2000 pM,500 pM
COC(=O)N[C@H](C(=O)N1CCC[C@H]1c1ncc(-c2ccc(-c3ccc4c(c3)OCc3nc([C@@H]5C[C@@]6(CCCOC6)CN5C(=O)[C@@H](NC(=O)OC)C(C)C)[nH]c3-4)cc2)[nH]1)C(C)C [Compound 33],38 pM,300 pM,300 pM,200 pM,100 pM
